Measurements: US9676779B2, “Small molecule CFTR correctors” (DISCOVERYBIOMED, INC., priority 2012, dated 2017)

How the values were obtained:
Format in all cases: cell-based
[1] = molecular target: T1, delF508-CFTR (Homo sapiens, UniProt P13569, DEL508-508); assay: CFTR Western blot / biochemical rescue assay (band B to band C); settings: CF human airway epithelial cells; 10 nM-10 μM; 10% serum containing medium
T1 construct: Unaltered CFBE41o− cells were used as the model; endogenous in cells; host or cells: CFBE41o- human CF bronchial epithelial cells (delF508 homozygous, not overexpressing)
T1 sequence (P13569 with tags, fused parts or gaps DEL508-508): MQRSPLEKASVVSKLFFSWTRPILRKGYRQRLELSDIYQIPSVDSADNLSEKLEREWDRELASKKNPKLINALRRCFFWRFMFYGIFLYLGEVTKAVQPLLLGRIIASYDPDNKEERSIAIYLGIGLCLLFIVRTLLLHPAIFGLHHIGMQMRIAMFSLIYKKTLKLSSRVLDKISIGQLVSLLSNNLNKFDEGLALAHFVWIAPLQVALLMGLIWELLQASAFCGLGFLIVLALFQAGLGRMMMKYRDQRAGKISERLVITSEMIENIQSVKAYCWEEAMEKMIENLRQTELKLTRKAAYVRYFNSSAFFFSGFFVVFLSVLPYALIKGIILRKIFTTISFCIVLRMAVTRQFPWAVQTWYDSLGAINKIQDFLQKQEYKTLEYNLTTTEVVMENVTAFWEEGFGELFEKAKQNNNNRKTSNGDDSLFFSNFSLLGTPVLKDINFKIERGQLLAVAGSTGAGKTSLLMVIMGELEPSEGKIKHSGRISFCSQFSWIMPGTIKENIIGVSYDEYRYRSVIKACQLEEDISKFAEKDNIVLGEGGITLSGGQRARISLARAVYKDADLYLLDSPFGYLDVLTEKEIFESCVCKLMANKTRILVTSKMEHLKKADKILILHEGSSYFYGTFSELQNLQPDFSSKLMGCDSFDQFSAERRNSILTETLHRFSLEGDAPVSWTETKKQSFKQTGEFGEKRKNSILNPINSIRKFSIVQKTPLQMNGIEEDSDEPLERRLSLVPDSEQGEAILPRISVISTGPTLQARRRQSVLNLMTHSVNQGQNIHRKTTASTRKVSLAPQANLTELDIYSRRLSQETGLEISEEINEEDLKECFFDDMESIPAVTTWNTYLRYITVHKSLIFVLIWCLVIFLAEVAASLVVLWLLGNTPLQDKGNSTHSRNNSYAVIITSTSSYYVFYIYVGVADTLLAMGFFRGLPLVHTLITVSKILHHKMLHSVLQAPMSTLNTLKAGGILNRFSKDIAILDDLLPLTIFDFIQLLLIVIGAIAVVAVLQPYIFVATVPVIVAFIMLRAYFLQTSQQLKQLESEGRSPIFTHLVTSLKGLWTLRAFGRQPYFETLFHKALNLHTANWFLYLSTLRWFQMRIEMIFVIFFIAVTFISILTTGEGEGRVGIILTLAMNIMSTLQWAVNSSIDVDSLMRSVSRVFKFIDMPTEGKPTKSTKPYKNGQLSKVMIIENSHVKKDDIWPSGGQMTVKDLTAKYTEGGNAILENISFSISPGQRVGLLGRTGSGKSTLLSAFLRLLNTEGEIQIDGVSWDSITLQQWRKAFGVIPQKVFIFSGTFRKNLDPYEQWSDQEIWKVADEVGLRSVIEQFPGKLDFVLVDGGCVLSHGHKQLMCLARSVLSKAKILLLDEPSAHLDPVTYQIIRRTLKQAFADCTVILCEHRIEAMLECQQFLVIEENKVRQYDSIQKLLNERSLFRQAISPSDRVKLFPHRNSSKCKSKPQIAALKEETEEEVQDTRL
Experimental: The method of profiling can also include determining the degree of CFTR glycosylation or CFTR protein processing. Optionally, this method can be performed using Western blot analysis. In this method, cells can be treated with the compound as described herein for a period of time (e.g., 24 hours) and, optionally, at multiple concentrations (e.g., 4 doses).
The method described in Example 3 was repeated with doses of the test compound of 0.01 μM, 0.1 μM, 1 μM, 10 μM, and 50 μM in Dulbecco's Modified Eagle Medium (DMEM) with 10% fetal bovine serum (FBS) for 48 hours at 37° C. Unaltered CFBE41o− cells were used as the model. A Western blot analysis of the lysates (10-50 μg total protein) was performed using the MM13-4 antibody for human CFTR to monitor changes in the CFTR protein. […] VX-809 and DMSO were used as the controls.
Cells were lysed in RIPA buffer (50 mM Tris-HCl, pH 7.4, 150 mM NaCl, 1% NP-40, 0.5% Deoxycholic Acid, 0.1% SDS) plus a cocktail of protease inhibitors (Roche; Basel, Switzerland). Protein concentrations in the cell lysates were measured by BCA Protein Assay using BSA as standard (Pierce; Rockford, Ill.). Proteins (25 μg) were resolved on an 8% SDS-PAGE gel and transferred to PDVF membranes. Total CFTR in the lysate was detected by immunoblotting using a specific CFTR antibody (MM13-4 from Upstate, 1:500 dilution).
The compounds were then subjected to a biochemical assay to define which hit compounds rescued the band B core glycosylated endoplasmic reticulum (ER) form of delF508-CFTR within the cell interior into the maturely glycosylated band C form within the secretory pathway for proteins and within the plasma membrane. Effective compounds stabilized the band B form of CFTR and caused more of this form to accumulate at the level of the ER.
By way of example, the delF508-CFTR mutation can be rescued from the ER with low temperature incubation for 48 hours (see examples in the blots as the positive control). The DMSO control is the simulated CF condition where the delF508-CFTR-expressing cells were grown at physiological temperature. […]

[2] = molecular target: T1, delF508-CFTR; assay: SPQ halide-sensitive fluorescence dye profiling assay (rescue of halide efflux); settings: for EC50: SPQ assay, 8-point concentration-response curve, CFBE41o− cells; for Emax: VX-809 at 3 μM treated as 100% efficacy; for Efficacy Comparison to 3 μM VX-809: compared to VX-809 at 3 μM; for potency and efficacy versus VX-809 in SPQ profiling: compounds advanced to further profiling
Experimental: The method of profiling can include detecting the rescue of halide efflux from a cell. The step of detecting a rescue of halide efflux from the cell can be monitored using the halide quenched dye 6-methoxy-N-(3-sulfopropyl)-quinolinium (SPQ, Molecular Probes Inc., Eugene, Oreg.). In this method, cells are treated with a compound as described herein for a period of time (e.g., 48 hours). The rescue or correction of halide efflux is then detected using the SPQ assay with the halide dye. […] Optionally, the halide efflux is chloride efflux. The method of screening can further comprise performing the method with multiple concentrations of the compound.
The compounds were initially subjected to the SPQ halide-sensitive fluorescence dye profiling assay for rescue or correction of membrane chloride ion permeability or transport with an 8-point concentration-response curve. The EC50 values for the compounds described herein were determined and compared to the efficacy of the industry standard Vertex 809 (VX-809; Vertex Pharmaceuticals, Cambridge, Mass.) at 3 μM, which is the maximally effective profiling dose for VX-809 (Table 1). The VX-809 dosage at 3 μM was treated as having 100% efficacy in the comparison.
To perform the SPQ high throughput screening assay, CFBE41o− cells were seeded into 96-well microtiter plates and were loaded with the fluorescent halide-sensitive dye, SPQ, in serum-containing culture medium. Certain wells were loaded with known positive control corrector molecules, including VX-809. The test compounds were loaded into wells and were tested in triplicate wells at a 10 μM dose and incubated over 48 hours at room temperature. During the 48 hour period, SPQ was absorbed. Plates were washed in a sodium chloride (NaCl) based Ringer and read once over two minutes to set the baseline SPQ fluorescence activity. Then, NaCl was replaced by sodium nitrate (NaNO3) based Ringer. The plates were read twice over four minutes. The primary high throughput screen (HTS) data were analyzed to detect any function of rescued delF508-CFTR under basal conditions. The plate was read up to two times to complete the SPQ HTS assay.

[3] = molecular target: T2, delF508-CFTR chloride ion channels (Homo sapiens, UniProt P13569, DEL508-508); assay: Ussing chamber short-circuit current electrical assay; settings: apical membrane of polarized CF human bronchial epithelium
T2 construct: functional delF508-CFTR chloride ion channels in the apical membrane of a polarized CF human bronchial epithelium; endogenous in cells
T2 sequence (P13569 with tags, fused parts or gaps DEL508-508): as above
Experimental: The method of profiling can further include determining the degree of functional delF508-CFTR chloride ion channels in the apical cell membrane of cells (e.g., polarized CF human airway epithelial cells). This method can use electrophysiological methods, such as Ussing chamber-based measurement of short-circuit current, voltammeter-based measurement of open-circuit transepithelial voltage and transepithelial resistance, and patch-clamp electrophysiology.
An electrical assay was also performed to determine the functional rescue of delF508-CFTR to the apical cell membrane in a polarized epithelium using the compounds described herein. The metrics analyzed were the basal short-circuit Cl^− current, the change or delta Cl^− current stimulated by forskolin, the total stimulated Cl^− current (basal and forskolin), and the change or delta Cl^− current inhibited by GlyH101. For exemplary purposes, DMSO (100 nM) and VX-809 (100 nM equivalent) treatments were controls, and a CFCL corrector was tested (see FIG. 9).
Only high-resistance cell monolayers (>800 to 1,000 Ohms per cm^2) were used in the experiments. Basal short-circuit current (ISC) was measured and documented. Amiloride was added to the apical side of the Ussing chamber to block any contribution of ENaC or other sodium or cation channels under basal or stimulated conditions. The effect of amiloride was negligible under these cell culture conditions. In the continued presence of amiloride (100 μM), forskolin (10 μM) was added to both sides of the monolayer to selectively open any delF508-CFTR chloride channels in the apical cell membrane. This activation step uncovered any remaining corrected delF508-CFTR chloride ion channels in the apical membrane of the polarized CF human bronchial epithelium. The final step was the addition of a CFTR-selective inhibitor, GlyH101 (100 μM), to reverse the effect of forskolin.
Ussing chamber-derived short-circuit current data were obtained for Compounds C-15 and C-73 (see FIGS. 10 and 11). […] The same protocol of additions of drugs to the apical side of the Ussing chamber was performed on each cell monolayer as described above. CPT-cAMP and IBMX are equivalent and CFTR-specific agonists to forskolin. As described above, VX-770 is a CFTR potentiator drug added to activate any remaining corrected CFTR present.

| Structure (SMILES) | biochemical correction of the delF508-CFTR protein [1] | EC50 [2] | Emax [2] | Efficacy Comparison to 3 μM VX-809 [2] | potency and efficacy versus VX-809 in SPQ profiling [2] | correction of functional delF508-CFTR chloride ion channels (short-circuit current) [3] |
| --- | --- | --- | --- | --- | --- | --- |
| CCOC(=O)c1nnc2c(-c3ccc(Cl)c(Cl)c3)c(C)nn2c1C [Compound C-15] | biochemical correction | 0.3 µM | 120% | 10-fold greater than VX-809 | superior potency and efficacy to VX-809 | robust correction |
| Cc1c(C(=O)O)nnc2c(-c3ccc(Cl)cc3)cnn12 [Compound C-2] | biochemical correction | 1 µM | 170% | 10-fold greater than VX-809 | superior potency and efficacy to VX-809 | – |
| CCOC(=O)c1nnc2c(-c3ccc(Cl)cc3)cnn2c1C [Compound C-12] | biochemical correction | 1 µM | 120% | 7-fold greater than VX-809 | superior potency and efficacy to VX-809 | – |
